The values below come from publication PMC2935290 (Journal of immunology (Baltimore, Md. : 1950), 2010).

A word on the IC50: it is the concentration that gives 50% inhibition. The low end stands for higher potency, the high end for lower potency.

Numbering of substitutions follows the chain as printed. Where no end group is shown, it is not given here.

For one test, the target named is T1, HLA-DPB1*0201 (Homo sapiens, UniProt P04440+P20036, A65V/A84D/A85E/K98E).
T1 sequence (P04440 30-258 A65V/A84D/A85E/K98E): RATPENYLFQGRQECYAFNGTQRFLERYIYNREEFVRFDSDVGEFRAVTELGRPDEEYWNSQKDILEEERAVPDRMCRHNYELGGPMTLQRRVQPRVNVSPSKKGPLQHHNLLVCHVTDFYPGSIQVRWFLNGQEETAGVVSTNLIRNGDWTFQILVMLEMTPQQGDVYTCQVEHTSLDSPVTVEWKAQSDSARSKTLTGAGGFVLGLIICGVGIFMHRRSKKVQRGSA
T1 sequence (P20036 29-260): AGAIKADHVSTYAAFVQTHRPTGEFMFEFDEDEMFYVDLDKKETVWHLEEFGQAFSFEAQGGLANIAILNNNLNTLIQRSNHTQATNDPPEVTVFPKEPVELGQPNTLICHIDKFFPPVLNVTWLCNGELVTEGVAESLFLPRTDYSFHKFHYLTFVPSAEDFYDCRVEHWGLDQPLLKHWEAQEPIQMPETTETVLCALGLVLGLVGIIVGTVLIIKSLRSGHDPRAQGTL
The experiment in a line: biochemical. Format: binding.

The next test deals with T2, HLA-DPB1*0402 (Homo sapiens, UniProt P04440+P20036, A65V/A84D/A85E/L207M).
T2 sequence (P04440 30-258 A65V/A84D/A85E): T1 sequence (P04440 30-258 A65V/A84D/A85E/K98E) with E69K
T2 sequence (P20036 29-260): T1 sequence (P20036 29-260)
Description: biochemical. Type of test: binding.

Take `CC[C@H](C)[C@H](NC(=O)[C@H](CS)NC(=O)[C@@H]1CCCN1C(=O)[C@H](CCC(=O)O)NC(=O)[C@H](CO)NC(=O)CNC(=O)[C@@H](N)Cc1c[nH]cn1)C(=O)N[C@H](C(=O)N[C@@H](Cc1c[nH]cn1)C(=O)N[C@@H](CCCNC(=N)N)C(=O)NCC(=O)N[C@@H](CCCCN)C(=O)N1CCC[C@H]1C(=O)N[C@@H](Cc1ccccc1)C(=O)N[C@@H](CCC(N)=O)C(=O)N[C@@H](CC(C)C)C(=O)N[C@@H](CCC(=O)O)C(=O)N[C@@H](C)C(=O)N[C@H](C(=O)O)C(C)C)[C@@H](C)CC`: the IC50 against HLA-DPB1*0201 came out at 820 nM; against HLA-DPB1*0402 it was 1410 nM. `CC[C@H](C)[C@H](NC(=O)[C@H](CC(=O)O)NC(=O)[C@@H](N)CCCCN)C(=O)N[C@@H](CC(C)C)C(=O)N[C@@H](CCC(=O)O)C(=O)N[C@@H](CC(=O)O)C(=O)N[C@@H](CCC(=O)O)C(=O)N[C@@H](CCCNC(=N)N)C(=O)N[C@@H](C)C(=O)N[C@@H](C)C(=O)N[C@H](C(=O)N[C@@H](CC(=O)O)C(=O)N[C@H](C(=O)N[C@@H](Cc1ccc(O)cc1)C(=O)N[C@@H](CS)C(=O)O)[C@@H](C)O)C(C)C`: the results for the IC50 on HLA-DPB1*0201 and against HLA-DPB1*0402 were 10500 nM and 4200 nM, respectively. The corresponding values for `CC[C@H](C)[C@H](NC(=O)[C@@H](N)CCCCN)C(=O)N[C@@H](Cc1ccccc1)C(=O)NCC(=O)N[C@@H](CO)C(=O)N[C@@H](CC(C)C)C(=O)N[C@@H](C)C(=O)N[C@@H](Cc1ccccc1)C(=O)N[C@@H](CC(C)C)C(=O)N1CCC[C@H]1C(=O)N[C@@H](CCC(=O)O)C(=O)N[C@@H](CO)C(=O)N[C@@H](Cc1ccccc1)C(=O)N[C@@H](CC(=O)O)C(=O)NCC(=O)N[C@@H](CC(=O)O)C(=O)N1CCC[C@H]1C(=O)N[C@@H](C)C(=O)O` are 9 nM and 143 nM. In the case of `CSCC[C@H](NC(=O)[C@H](CCCNC(=N)N)NC(=O)[C@H](CCSC)NC(=O)[C@H](CCCCN)NC(=O)[C@H](CO)NC(=O)[C@@H](NC(=O)[C@@H]1CCCN1C(=O)[C@@H](N)CCCCN)C(C)C)C(=O)N[C@@H](C)C(=O)N[C@H](C(=O)N1CCC[C@H]1C(=O)N[C@@H](CC(C)C)C(=O)N[C@@H](CC(C)C)C(=O)N[C@@H](CCSC)C(=O)N[C@@H](CCC(N)=O)C(=O)N[C@@H](C)C(=O)N[C@@H](CC(C)C)C(=O)N1CCC[C@H]1C(=O)O)[C@@H](C)O`, the results for the IC50 against HLA-DPB1*0201 and against HLA-DPB1*0402 were 161 nM and 138 nM, respectively. In turn, `CC(C)C[C@H](NC(=O)[C@H](CO)NC(=O)[C@H](CCC(N)=O)NC(=O)[C@@H](N)CC(C)C)C(=O)N[C@H](C(=O)N[C@@H](CO)C(=O)N[C@@H](CCC(N)=O)C(=O)N[C@@H](Cc1ccc(O)cc1)C(=O)N[C@@H](Cc1ccccc1)C(=O)N[C@@H](CCC(N)=O)C(=O)N[C@H](C(=O)N[C@H](C(=O)N[C@@H](C)C(=O)N[C@@H](CC(=O)O)C(=O)N[C@@H](Cc1ccc(O)cc1)C(=O)O)C(C)C)[C@@H](C)O)C(C)C` registered a 50% inhibitory concentration (IC50) on HLA-DPB1*0201 of 2.7 nM.

`CC[C@H](C)[C@H](NC(=O)[C@H](C)NC(=O)[C@H](CS)NC(=O)[C@H](C)NC(=O)[C@H](CC(C)C)NC(=O)[C@@H](NC(=O)CNC(=O)[C@H](CC(=O)O)NC(=O)[C@H](CC(=O)O)NC(=O)CNC(=O)[C@@H](N)CCSC)C(C)C)C(=O)N[C@@H](C)C(=O)N[C@H](C(=O)N[C@@H](Cc1c[nH]cn1)C(=O)N[C@@H](C)C(=O)N[C@@H](CCCCN)C(=O)N[C@H](C(=O)N[C@@H](CCCNC(=N)N)C(=O)N[C@@H](CC(=O)O)C(=O)O)[C@@H](C)CC)[C@@H](C)O` returned an IC50 against HLA-DPB1*0201 of 8790 nM. Against the preceding compound, the IC50 is about 3300-fold higher. On to `CC[C@H](C)[C@H](NC(=O)[C@H](CCC(N)=O)NC(=O)[C@H](CS)NC(=O)[C@H](Cc1ccc(O)cc1)NC(=O)[C@H](CC(N)=O)NC(=O)[C@H](CO)NC(=O)[C@@H](NC(=O)CNC(=O)[C@H](Cc1ccccc1)NC(=O)[C@H](CCCNC(=N)N)NC(=O)[C@H](CCC(N)=O)NC(=O)[C@H](C)NC(=O)[C@@H](N)CC(N)=O)[C@@H](C)CC)C(=O)O`, for which the IC50 is 7.8 nM against HLA-DPB1*0201 and 365 nM at HLA-DPB1*0402. Take `CSCC[C@H](NC(=O)[C@H](CCSC)NC(=O)[C@@H](N)CCCNC(=N)N)C(=O)N[C@@H](CCC(=O)O)C(=O)N[C@@H](Cc1ccc(O)cc1)C(=O)NCC(=O)N[C@H](C(=O)N[C@H](C(=O)N[C@@H](CCSC)C(=O)N[C@H](C(=O)N[C@@H](CO)C(=O)N[C@@H](Cc1ccc(O)cc1)C(=O)N[C@@H](CCC(N)=O)C(=O)N1CCC[C@H]1C(=O)N[C@@H](CC(C)C)C(=O)O)C(C)C)[C@@H](C)O)[C@@H](C)O`: the IC50 was 725 nM at HLA-DPB1*0201 and 1310 nM against HLA-DPB1*0402.

For the compound `CC[C@H](C)[C@H](NC(=O)[C@H](Cc1c[nH]c2ccccc12)NC(=O)[C@H](CCSC)NC(=O)[C@H](CC(C)C)NC(=O)[C@H](CC(C)C)NC(=O)[C@@H](N)CO)C(=O)N[C@H](C(=O)N[C@@H](CCC(N)=O)C(=O)N[C@@H](CS)C(=O)N[C@@H](Cc1ccccc1)C(=O)N[C@@H](CC(C)C)C(=O)N1CCC[C@H]1C(=O)N[C@H](C(=O)O)C(C)C)[C@@H](C)O`, the results for the IC50 on HLA-DPB1*0201 and at HLA-DPB1*0402 were 1.3 nM and 6.1 nM, respectively. In the case of `CC[C@H](C)[C@H](NC(=O)[C@H](CO)NC(=O)[C@H](CCC(=O)O)NC(=O)[C@H](C)NC(=O)[C@H](CCC(=O)O)NC(=O)[C@H](CCSC)NC(=O)[C@H](CCC(N)=O)NC(=O)[C@H](CCCCN)NC(=O)[C@@H](NC(=O)[C@H](CC(=O)O)NC(=O)[C@H](CCC(=O)O)NC(=O)[C@H](CCSC)NC(=O)[C@H](C)NC(=O)[C@H](CCC(N)=O)NC(=O)[C@H](CC(=O)O)NC(=O)[C@H](CCC(=O)O)NC(=O)[C@@H](N)[C@@H](C)O)[C@@H](C)CC)C(=O)N[C@@H](CO)C(=O)O`, the IC50 at HLA-DPB1*0201 turned out to be 4770 nM; against HLA-DPB1*0402, 2470 nM.

Regarding `CC[C@H](C)[C@H](NC(=O)[C@H](C)NC(=O)[C@H](CC(=O)O)NC(=O)[C@H](CCCCN)NC(=O)[C@H](CC(C)C)NC(=O)[C@@H](NC(=O)[C@H](CCC(=O)O)NC(=O)[C@H](C)NC(=O)[C@H](Cc1ccccc1)NC(=O)[C@@H](NC(=O)[C@H](Cc1c[nH]cn1)NC(=O)[C@@H](NC(=O)[C@H](CCC(N)=O)NC(=O)[C@H](CC(C)C)NC(=O)[C@H](Cc1ccccc1)NC(=O)[C@@H](N)C(C)C)[C@@H](C)O)[C@@H](C)CC)C(C)C)C(=O)N[C@@H](CCCCN)C(=O)N[C@@H](CC(=O)O)C(=O)N[C@@H](CC(C)C)C(=O)O`, the IC50 on HLA-DPB1*0201 was determined as 32 nM; against HLA-DPB1*0402, 5.6 nM. On HLA-DPB1*0402, `CC[C@H](C)[C@H](NC(=O)[C@@H](N)Cc1c[nH]c2ccccc12)C(=O)N[C@H](C(=O)N[C@@H](CCC(N)=O)C(=O)N[C@@H](CS)C(=O)N[C@@H](Cc1ccccc1)C(=O)N[C@@H](CC(C)C)C(=O)N1CCC[C@H]1C(=O)N[C@H](C(=O)N[C@@H](Cc1ccccc1)C(=O)N[C@@H](CC(C)C)C(=O)N[C@@H](C)C(=O)N[C@@H](CCC(N)=O)C(=O)N1CCC[C@H]1C(=O)N1CCC[C@H]1C(=O)N[C@@H](CO)C(=O)NCC(=O)N[C@@H](CCC(N)=O)C(=O)N[C@@H](CCCNC(=N)N)C(=O)N[C@@H](CCCNC(=N)N)C(=O)O)C(C)C)[C@@H](C)O` registered an IC50 of 25 nM. This counts as double-digit nanomolar. As for DVKFPGGGQIVGGVYLLPRR, the IC50 at HLA-DPB1*0402 stood at 33 nM.

In turn, FDRSTKVIDFHYPNE registered an IC50 on HLA-DPB1*0402 of 30400 nM.

Compound LTGYSLFQKEKMVLN came in with an IC50 against HLA-DPB1*0201 of 180 nM. In turn, RELWWVFYAAD registered an IC50 against HLA-DPB1*0201 of 291 nM. For the compound TPTEKDEYCARVNH, the IC50 against HLA-DPB1*0402 stood at 14000 nM.
